Where “and” joins values, the source holds several entries; their conditions need not be identical. Equal values may be shown once. Read-outs that look alike come from different tables or passages of the source.

Holding throughout (details): COS-7 membranes
One test has as its target T1, α1b-AR (Homo sapiens, UniProt P35368).
T1 construct: expressed in transfected cells; host or cells: COS-7 cells (African Green monkey kidney), membranes
T1 sequence (P35368 1-520): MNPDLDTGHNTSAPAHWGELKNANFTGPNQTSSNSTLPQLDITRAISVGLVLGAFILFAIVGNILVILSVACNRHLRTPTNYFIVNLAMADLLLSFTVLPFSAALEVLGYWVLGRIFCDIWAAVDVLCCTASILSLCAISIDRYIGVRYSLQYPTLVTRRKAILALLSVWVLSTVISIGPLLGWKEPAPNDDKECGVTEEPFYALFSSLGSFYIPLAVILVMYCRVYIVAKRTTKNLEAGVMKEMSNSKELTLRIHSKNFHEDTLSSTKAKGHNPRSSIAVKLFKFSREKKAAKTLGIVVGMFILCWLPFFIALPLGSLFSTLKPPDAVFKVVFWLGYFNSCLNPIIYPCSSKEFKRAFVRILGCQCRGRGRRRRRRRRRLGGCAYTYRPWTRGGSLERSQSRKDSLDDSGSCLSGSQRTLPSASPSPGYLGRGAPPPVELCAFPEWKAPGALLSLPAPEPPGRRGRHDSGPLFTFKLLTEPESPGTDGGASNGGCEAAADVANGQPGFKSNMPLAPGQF
Kind of test: α1-Adrenergic Receptor Binding Assay, 125I-HEAT radio-ligand binding, transfected COS-7 cell membranes, α1b subtype. Here is the method: (§1) Membranes were prepared from COS-7 cells (African Green monkey kidney SV40-transformed cells) that had been transfected with one of the three α1-AR subtypes by the following method: COS cells from ten 100 mm tissue culture plates were scraped into a 5 ml volume of TE (a mixture of 50 mM tris(hydroxymethyl)aminomethane hydrochloride (Tris-HCl) and 5 mM ethylenediaminetetraacetic acid (EDTA) at pH 7.4). The cell suspension was disrupted with a Brinkman Polytron (at a setting of 8) for 10 sec. The disrupted cells were centrifuged at 1000×g for 10 min at 4° C. Supernatants were centrifuged at 34,500×g for 20 min at 4° C. The membrane pellets were suspended in a 2 ml volume of TNE (a mixture of 50 mM Tris-HCl, 5 mM EDTA and 150 mM NaCl at pH7.4). An aliquot of the membrane suspension was stored at −70° C. until use. The protein concentration was determined using a BioRad “DC” protein assay kit following membrane solubilization with Triton X-100.
(§2) Triplicate determinations of radio-ligand binding in the presence of increasing concentrations of testing compound were made. The reagents were added to 96-well polypropylene plate wells. Each assay well contained 140 μL TNE, 25 μL 125′-2-(β-4-hydroxyphenyl)ethylaminomethyltetralone (^125I-HEAT) (specific activity 2200 Ci/mmol, Dupont-New England Nuclear, […] final), 10 μL testing compound dissolved in dimethyl sulfoxide (DMSO) ([…] to 10 μM in half-log increments, final), and 25 μL appropriate α1-AR membrane subtype suspension in TNE (0.5 ng/μL for the α1a and α1b subtypes and 13 ng/μL for the α1d subtype). The plate was incubated at rt for 1 hr. The contents of the wells were filtered through a glass filter (type C) (GF/C) membrane Unifilter plate (Packard Instruments) using the Packard Filtermate cell harvester. The filter plates were dried in a vacuum oven for 30 min at 40° C. 25 μL Microscint 20 liquid scintillation fluid (Packard Instuments) was added to each well. The radioactive content was analyzed in the TopCount microplate scintillation counter (Packard Instruments).
(§3) The Ki values (in nM) shown in Table 1 were determined using GraphPad Prism software.

In another test the target is T2, α1d-AR (Homo sapiens, UniProt P25100).
T2 construct: expressed in transfected cells; host or cells: COS-7 cells (African Green monkey kidney), membranes
T2 sequence (P25100 1-572): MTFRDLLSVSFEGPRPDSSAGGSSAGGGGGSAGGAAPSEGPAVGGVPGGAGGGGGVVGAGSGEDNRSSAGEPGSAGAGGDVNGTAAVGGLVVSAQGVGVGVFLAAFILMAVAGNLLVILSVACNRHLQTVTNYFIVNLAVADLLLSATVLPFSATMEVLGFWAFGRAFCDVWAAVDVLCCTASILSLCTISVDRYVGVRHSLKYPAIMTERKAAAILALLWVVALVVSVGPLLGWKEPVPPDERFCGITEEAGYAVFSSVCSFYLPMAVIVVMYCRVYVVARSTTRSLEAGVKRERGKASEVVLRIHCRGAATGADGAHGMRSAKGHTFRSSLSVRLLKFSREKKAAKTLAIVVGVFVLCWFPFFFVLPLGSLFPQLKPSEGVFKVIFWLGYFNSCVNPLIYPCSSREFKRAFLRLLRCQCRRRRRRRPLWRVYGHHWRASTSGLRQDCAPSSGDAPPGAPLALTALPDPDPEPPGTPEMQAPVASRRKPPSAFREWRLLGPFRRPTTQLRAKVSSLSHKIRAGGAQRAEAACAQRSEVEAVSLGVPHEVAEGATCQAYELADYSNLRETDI
Kind of test: α1-Adrenergic Receptor Binding Assay, 125I-HEAT radio-ligand binding, transfected COS-7 cell membranes, α1d subtype. The method, then: as §1, §2, §3

For the next test, the target named is T3, α1a-AR (Homo sapiens, UniProt P35348).
T3 construct: expressed in transfected cells; host or cells: COS-7 cells (African Green monkey kidney), membranes
T3 sequence (P35348 1-466): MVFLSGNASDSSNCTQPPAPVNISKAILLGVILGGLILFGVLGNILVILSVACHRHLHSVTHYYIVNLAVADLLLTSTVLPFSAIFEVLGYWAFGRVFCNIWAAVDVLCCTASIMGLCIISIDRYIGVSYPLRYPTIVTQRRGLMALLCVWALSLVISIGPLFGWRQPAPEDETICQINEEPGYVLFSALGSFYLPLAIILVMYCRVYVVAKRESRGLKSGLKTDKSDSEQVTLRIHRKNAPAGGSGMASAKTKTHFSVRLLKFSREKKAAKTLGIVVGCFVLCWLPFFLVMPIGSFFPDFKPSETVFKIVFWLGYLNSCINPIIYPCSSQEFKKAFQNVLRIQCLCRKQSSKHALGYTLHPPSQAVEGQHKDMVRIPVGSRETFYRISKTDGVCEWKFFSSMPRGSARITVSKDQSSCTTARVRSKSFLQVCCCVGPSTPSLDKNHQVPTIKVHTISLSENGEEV
The experiment in a line: α1-Adrenergic Receptor Binding Assay, 125I-HEAT radio-ligand binding, transfected COS-7 cell membranes, α1a subtype. The method, then:
as §1, §2, §3

The mark [1] stands for this setting: average value, read-out: Alpha 1 Ki α1b (1) Average Value.
The mark [2] stands for this setting: individual values, read-out: Alpha 1 Ki α1b (2) Individual Values.
Setting [3] is: average value, read-out: Alpha 1 Ki α1d (1) Average Value.
Setting [4] is: individual values, read-out: Alpha 1 Ki α1d (2) Individual Values.
Where [5] appears, read: average value, read-out: Alpha 1 Ki α1a (1) Average Value.
[6] abbreviates: individual values, read-out: Alpha 1 Ki α1a (2) Individual Values.

As usually defined, the Ki is the equilibrium dissociation constant of an inhibitor or competing ligand from its target. Consider `CC(C)Oc1ccccc1N1CCN(CC2CC(C(=O)N3CCCCC3)=NO2)CC1` (centres unmarked) [Compound 12, {5-[4-(2-isopropoxy-phenyl)-piperazin-1-ylmethyl]-4,5-dihydro-isoxazol-3-yl}-piperidin-1-yl-methanone], for which the Ki on α1b-AR (setting [1]) was 249 nM; on α1b-AR (setting [2]) it was 334 nM and 174 nM and 239 nM; on α1d-AR (setting [3]) it was 17.8 nM; on α1d-AR (setting [4]) it was 29 nM and 18 nM and 6.26 nM; on α1a-AR (setting [5]), 1.81 nM; at α1a-AR (setting [6]), 1.02 nM and 1.7 nM and 2.7 nM.
With `CC(C)Oc1ccccc1N1CCN(CC2CC(C(=O)N3CCc4cc(Br)ccc43)=NO2)CC1` (centres unmarked) [Compound 13, (5-bromo-2,3-dihydro-indol-1-yl)-{5-[4-(2-isopropoxy-phenyl)-piperazin-1-ylmethyl]-4,5-dihydro-isoxazol-3-yl}-methanone], the Ki at α1b-AR (setting [1]) is 191 nM; at α1b-AR (setting [2]), 402 nM and 147 nM and 134 nM and 82.8 nM; on α1d-AR (setting [3]) it was 6.08 nM; on α1a-AR (setting [5]) it was 2.48 nM; on α1a-AR (setting [6]), 1.31 nM and 2.4 nM and 3.7 nM and 2.5 nM.
For the compound `CC(C)Oc1ccccc1N1CCN(CC2CC(C(=O)N3CCc4ccc(N)cc43)=NO2)CC1` (centres unmarked) [Compound 14, (6-amino-2,3-dihydro-indol-1-yl)-{5-[4-(2-isopropoxy-phenyl)-piperazin-1-ylmethyl]-4,5-dihydro-isoxazol-3-yl}-methanone], the Ki on α1b-AR (setting [1]) came out at 141 nM; at α1b-AR (setting [2]), 141 nM; at α1d-AR (setting [3]), 2.8 nM; at α1d-AR (setting [4]) it was 2.8 nM; at α1a-AR (setting [5]), 2 nM; on α1a-AR (setting [6]), 2 nM.
As for `CC(C)Oc1ccccc1N1CCN(CC2CC(C(=O)N3CCc4ccc(NCc5ccccc5F)cc43)=NO2)CC1` (centres unmarked) [Compound 15, [6-(2-fluoro-benzylamino)-2,3-dihydro-indol-1-yl]-{5-[4-(2-isopropoxy-phenyl)-piperazin-1-ylmethyl]-4,5-dihydro-isoxazol-3-yl}-methanone], the Ki on α1b-AR (setting [1]) amounted to 128 nM; on α1b-AR (setting [2]), 128 nM; at α1d-AR (setting [3]), 11.6 nM; at α1d-AR (setting [4]), 11.6 nM; at α1a-AR (setting [5]) it was 9.6 nM; on α1a-AR (setting [6]), 9.6 nM.
Consider `CC(C)Oc1ccccc1N1CCN(CC2CC(C(=O)N3CCc4cc(Cl)ccc43)=NO2)CC1` (centres unmarked) [Compound 16, (5-chloro-2,3-dihydro-indol-1-yl)-{5-[4-(2-isopropoxy-phenyl)-piperazin-1-ylmethyl]-4,5-dihydro-isoxazol-3-yl}-methanone], for which the Ki at α1b-AR (setting [1]) came to 133 nM; on α1b-AR (setting [2]), 133 nM; on α1d-AR (setting [3]), 4.7 nM; on α1d-AR (setting [4]) it was 4.7 nM; on α1a-AR (setting [5]), 8.3 nM; on α1a-AR (setting [6]) it was 8.3 nM.
As for `CC(C)Oc1ccccc1N1CCN(CC2CC(C(=O)N3CCN(c4ccccc4OC(C)C)CC3)=NO2)CC1` (centres unmarked) [Compound 17, [4-(2-isopropoxy-phenyl)-piperazin-1-yl]-{5-[4-(2-isopropoxy-phenyl)-piperazin-1-ylmethyl]-4,5-dihydro-isoxazol-3-yl}-methanone], the Ki on α1b-AR (setting [1]) turned out to be 187 nM; on α1b-AR (setting [2]), 187 nM; at α1d-AR (setting [3]), 6.6 nM; on α1d-AR (setting [4]) it was 6.6 nM; on α1a-AR (setting [5]), 16.3 nM; on α1a-AR (setting [6]), 16.3 nM.
Consider `CC(C)Oc1ccccc1N1CCN(CC2CC(C(=O)N3CCC(C(=O)c4ccc(F)cc4)CC3)=NO2)CC1` (centres unmarked) [Compound 18, [4-(4-fluoro-benzoyl)-piperidin-1-yl]-{5-[4-(2-isopropoxy-phenyl)-piperazin-1-ylmethyl]-4,5-dihydro-isoxazol-3-yl}-methanone], for which the Ki was 423 nM at α1b-AR (setting [1]); 423 nM on α1b-AR (setting [2]); 21.5 nM on α1d-AR (setting [3]); 22 nM and 21 nM at α1d-AR (setting [4]); 7.9 nM on α1a-AR (setting [5]); 9.9 nM and 5.9 nM at α1a-AR (setting [6]).
For `CC(C)Oc1ccccc1N1CCN(CC2CC(C(=O)N3CC(C)(C)c4cc(Br)ccc43)=NO2)CC1` (centres unmarked) [Compound 19, (5-bromo-3,3-dimethyl-2,3-dihydro-indol-1-yl)-{5-[4-(2-isopropoxy-phenyl)-piperazin-1-ylmethyl]-4,5-dihydro-isoxazol-3-yl}-methanone], the Ki on α1b-AR (setting [1]) was 280 nM; on α1b-AR (setting [2]) it was 302 nM and 258 nM; on α1d-AR (setting [3]) it was 0.6 nM; on α1d-AR (setting [4]), 0.4 nM and 0.8 nM; on α1a-AR (setting [5]), 13 nM; on α1a-AR (setting [6]), 13 nM.
For `CC(C)Oc1ccccc1N1CCN(CC2CC(C(=O)N3CCc4cc(F)ccc43)=NO2)CC1` (centres unmarked) [Compound 20, (5-fluoro-2,3-dihydro-indol-1-yl)-{5-[4-(2-isopropoxy-phenyl)-piperazin-1-ylmethyl]-4,5-dihydro-isoxazol-3-yl}-methanone], the Ki was 112 nM at α1b-AR (setting [1]); 97.2 nM and 126 nM on α1b-AR (setting [2]); 0.623 nM at α1d-AR (setting [3]); 0.145 nM and 1.1 nM on α1d-AR (setting [4]); 2.23 nM on α1a-AR (setting [5]); 1.35 nM and 3.1 nM on α1a-AR (setting [6]).
With `CC(C)Oc1ccccc1N1CCN(CC2CC(C(=O)N3CCC(C(=O)c4ccccc4)CC3)=NO2)CC1` (centres unmarked) [Compound 21, (4-benzoyl-piperidin-1-yl)-{5-[4-(2-isopropoxy-phenyl)-piperazin-1-ylmethyl]-4,5-dihydro-isoxazol-3-yl}-methanone], the Ki is 224 nM on α1b-AR (setting [1]); 288 nM and 160 nM at α1b-AR (setting [2]); 7.65 nM at α1d-AR (setting [3]); 5.5 nM and 9.8 nM on α1d-AR (setting [4]); 5.25 nM at α1a-AR (setting [5]); 3.2 nM and 7.3 nM on α1a-AR (setting [6]).
Regarding `CC(=O)N1CCc2cc(NC(=O)C3=NOC(CN4CCN(c5ccccc5OC(C)C)CC4)C3)ccc21` (centres unmarked) [Compound 22, 5-[4-(2-isopropoxy-phenyl)-piperazin-1-ylmethyl]-4,5-dihydro-isoxazole-3-carboxylic acid (1-acetyl-2,3-dihydro-1H-indol-5-yl)-amide], the Ki was 80.4 nM on α1b-AR (setting [1]); 73 nM and 87.7 nM at α1b-AR (setting [2]); 1.81 nM on α1d-AR (setting [3]); 1.5 nM and 2.13 nM at α1d-AR (setting [4]); 2.02 nM at α1a-AR (setting [5]); 2.54 nM and 1.5 nM on α1a-AR (setting [6]).

Source of the values: patent publication US20080221116A1, “ISOXAZOLINE ALPHA 1a/1d ADRENORECEPTOR ANTAGONISTS” (priority 2006, published 2008).
